Data: patent US4356306A, “Water-soluble derivatives of 6,6'-methylene-bis-(2,2,4-trimethyl-1,2-dihydroquinoline)” (Material Vegyipari Szovetkezet, priority 1979, dated 1982)

Columns and labels:
[1] = known radioprotective compounds; cited from earlier work
mice = assay: protection against hepatotoxic dimethylsulfoxide; format: in vivo; settings: for death after dimethylsulfoxide / protective activity against dimethylsulfoxide: 100 mg. disulfonic acid or 60 mg. disulfonamide in water and dimethylsulfoxide, i.p. or s.c.
Procedure: The surrounding carcinogens play an important role in the formation of malignant tumors. These carcinogens contain free radicals or they become carcinogenic in the living organism. […] As the radical reactions may be controlled by the antioxidants, they may be employed as therapeutic and as prophylactic agents as well. […] A hepatotoxic substance had to be administered which was simultaneously carcinogenic. Dimethylsulfoxide was suitable. 0.3 ml. of dimethylsulfoxide/mice was administered i.p. or s.c. in an aqueous solution and as a result 7 animals died within 10 days out of 10 test animals.

[2] = inhibitor activity on the polymerization of acrylic acid at 60° C.; format: biochemical; settings: control 16 hours
Procedure: The efficiency of the compounds of the invention was investigated in vitro by measuring the inhibitor activity of the compounds on the polymerization of acrylic acid at 60° C., and comparing this activity with that of 3.5-di-tert.butyl-4-hydroxy-toluene (BHT) and L-ascorbic acid. The radical binding activity of the compounds was studied.
The times required to polymerization are given in the next Table.

CFLP mice = assay: protection against LD90 radiodose after i.p. administration; format: in vivo; settings: 1000 mg./kg. i.p., preferably 2 hours before LD90 radiodose
Procedure: The unexpected activity of the new compounds has been observed during a total body irradiation. As test animals CFLP mice of an average weight of 20 to 22 g. were used, each group consisted of 8 male and 8 female animals. The control group was irradiated with 7 Gy (total body irradiation) and the test groups were treated per os for 10 days with the new water-soluble antioxidant of the invention at a daily dose of 0.5 g./kg. The treatment was followed by 7 Gy total body irradiation. There was no significant difference between the various water-soluble antioxidants and as a result within 30 days two animals of the control group were alive and an average of 12 animals survived in the treated group. A significant result was obtained with X^2 probe, p<0.001 and the Dose Modification Factor (DMF), which is the number of dead animals in the control group related to the number of dead animals in the treated group, amounted to 3.5 at LD80. A dose of 1000 mg./kg. bodyweight of MTDQ disulfonic acid Na was administered i.p. preferably 2 hours before irradiation with an LD90 radiodose and a 100% protective activity was obtained. […] It is known that the radioprotective compounds protect the healthy tissue cells better than the malignant tumor cells.

cancer of the bladder = settings: large amount of Vitamin-C; cited from earlier work
[3] = detection of MTDQ in the liver; format: in vivo; settings: after administration of the compound of the invention
Source text: (§1) The concentration of the found MTDQ was the same as if it had not been the compound of the invention that had been administered, but rather MTDQ. […] The radioprotective activity of the water-soluble antioxidant is presumably due to the fact that the radiation energy is predominantly concentrated on the antioxidant and further that in addition to its membrane stabilizing activity the radicals and peroxides formed in the course of the irradiation, are inactivated by the antioxidant, in the well oxygenated cells.

plasma concentration = format: in vivo
Source text: as §1

malignant tumor tissues = settings: cited from earlier work

NCCCNCCSP(=O)(O)O [WR 2721, S-2-(3-aminopropyl)-aminoethyl-phosphorothioic acid]
duration of effect after administration [1]: extremely limited | effective doses as radioprotective compound [1]: effective only at subtoxic doses

Br.Br.N=C(N)SCCN [AET, S-2-aminoethyl-isothiuronium-dihydrobromide]
duration of effect after administration [1]: extremely limited | effective doses as radioprotective compound [1]: effective only at subtoxic doses

N[C@@H](CS)C(=O)O [cysteine]
duration of effect after administration [1]: extremely limited | effective doses as radioprotective compound [1]: effective only at subtoxic doses

CC1(C)C=C(CS(N)(=O)=O)c2cc(Cc3ccc4c(c3)C(CS(N)(=O)=O)=CC(C)(C)N4)ccc2N1 [disulfonamide]
death after dimethylsulfoxide (mice): no death was observed | protective activity against dimethylsulfoxide (mice): 100%

C[S+](C)[O-] [Dimethylsulfoxide]
animals died within 10 days (mice; 0.3 ml./mice i.p. or s.c., out of 10 test animals): 7 animals

Cc1cc(C(C)(C)C)c(O)c(C(C)(C)C)c1 [BHT, 3.5-di-tert.butyl-4-hydroxy-toluene]
times required to polymerization ([2]; 0.02%): 120 h

NCCS [cysteamine, beta-mercapto-ethyl-amine]
duration of effect after administration [1]: extremely limited | effective doses as radioprotective compound [1]: effective only at subtoxic doses

CC1(C)C=C(CS(=O)(=O)O)c2cc(Cc3ccc4c(c3)C(CS(=O)(=O)O)=CC(C)(C)N4)ccc2N1 [MTDQ-disulfonic acid]
death after dimethylsulfoxide (mice): no death was observed | protective activity against dimethylsulfoxide (mice): 100% | times required to polymerization ([2]; concentration not given): 400 h

CC1(C)C=C(CS(=O)(=O)O)c2cc(Cc3ccc4c(c3)C(CS(=O)(=O)O)=CC(C)(C)N4)ccc2N1 [MTDQ disulfonic acid Na, 6,6'-methylene-bis(2,2-dimethyl-4-methanesulfonic acid Na-1,2-dihydroquinoline)]
protective activity (CFLP mice): 100%

O=C1O[C@H]([C@@H](O)CO)C(O)=C1O [L-ascorbic acid]
cancer of the bladder by beta-naphthyl-amine (cancer of the bladder): does not cause cancer of the bladder | times required to polymerization ([2]; 0.02%): 18 h

CC1=CC(C)(C)Nc2ccc(Cc3ccc4c(c3)C(C)=CC(C)(C)N4)cc21 [MTDQ, 6,6'-methylene-bis(2,2,4-trimethyl-1,2-dihydroquinoline)]
MTDQ in the liver [3]: could be detected in the liver | concentration of found MTDQ compared with administration of MTDQ itself (plasma concentration; after administration of the compound of the invention): the same | MTDQ in the plasma as metabolite (desulfonation) (plasma concentration; after administration of the new compounds): found in the plasma | radiosensibility of malignant tumor tissues (malignant tumor tissues; in vivo): increase the radiosensibility of malignant tumor tissues | reduction of radiodose for the same effect (malignant tumor tissues; radiosensitive tumors): at least 50%
